Experimental findings from US6855546B1, “Controlling availability or activity of proteins by use of protease inhibitors or receptor fragments” (Universiteit Utrecht, priority 1999, dated 2005) are described below.

Where a SMILES comes first, the peptide text is derived from it. The star is where a group is joined. Cbz = O=C(OCc1ccccc1)*

Holding throughout (assay type): cell-based, Chinese hamster
Test [1] relates to CHO-ts20 cells expressing the rabbit GHR. The experiment in a line: Cy3-GH endocytosis by confocal microscopy, wild-type GHR. The note with it: 20 mM inhibitor 3 hours at 30° C., then Cy3-GH 30 minutes. As for the experimental part: FIG. 1. Effect of proteasome inhibitors on Cy3-GH and Cy3-transferrin endocytosis. CHO-ts20 cells, expressing either wild-type (A, D, G, C, F, I) or truncated GHR (B, E, H), were incubated with vehicle (A-C) or with 20 mM MG132 (D-F) or 20 mM lactacystin (G-I) for 3 hours at 30° C.; then Cy3-GH (A, B, D, E, G, H), or Cy3-transferrin (C, F, I) were added for 30 minutes, and the cells were washed, fixed and the fluorescence was visualized by confocal microscopy. If excess labeled ligand was added, no uptake was observed. If the cells in D, G were treated at pH 2.5 before fixation, virtually no label was visible (not shown).
Down-regulation of signal-transducing membrane receptors is part of highly programmed cascades of events leading both to extinction of the signaling pathway(s) and to rapid degradation of the primary messenger: the receptor and its ligand (3, 4, 5, 6, 7). In the absence of ligand, the half-life of GHR is approximately 1 to 2 hours depending on the cell system used. The assumption is that this is mainly due to a proteolytic cleavage in the extracellular domain of the GHR resulting in soluble GH-binding protein (8). If ligand is present, a completely different scenario follows: two GHR polypeptides dimerize, they are phosphorylated by the tyrosine kinase Jak2 and ubiquitinated, and the complex is endocytosed. […]

Test [2] has as its system mature GHR in CHO-ts20 cells. The test can be described thus: 35S-methionine pulse-chase of GHR in the presence of GH. The following applies: 16 nM GH. As for the experimental part:
FIG. 3. Effect of MG132 on GHR degradation in the presence of ligand. A. Cells were pulse labeled with ^35S-methionine and then chased in unlabeled methionine in the presence of 16 nM GH with or without MG132 for the times indicated. GHR was immunoprecipitated using an anti-cytosolic tail antibody. The radioactivity in the mature (upper) band (inset) was quantitated and plotted. □, control (1% ethanol); ●, MG132. B. Cells were biotinylated and incubated in the presence of GH with MG132 or with vehicle only at 30° C. for the time periods indicated. After streptavidin-bead purification aliquots of the cell lysates were analyzed by SDS-PAGF; western blots were incubated with a monoclonal antibody specific for the extracellular GHR domain and detected with enhanced chemifluorescence. […]
If proteasome inhibitors affect GHR-uptake, it is expected that the inhibitors prolong the lifetime of GHRs at the cell surface. To address this, we measured the effect of MG132 in a pulse-chase experiment. […] To assess the effect of MG132 more directly, we measured degradation of cell-surface biotinylated GHR after incubation in the presence of ligand (FIG. 3B). […]
Metabolic labeling. […] The radioactivity was determined using a Molecular Dynamics phosphoimager (STORM860 equipped with ImageQuant software, Molecular Dynamics, Sunnyvale, Calif.). […]

Test [3] deals with cell-surface GHR in CHO-ts20 cells. The experiment in a line: Degradation of cell-surface biotinylated GHR. As for the experimental part: FIG. 3. Effect of MG132 on GHR degradation in the presence of ligand. A. Cells were pulse labeled with ^35S-methionine and then chased in unlabeled methionine in the presence of 16 nM GH with or without MG132 for the times indicated. GHR was immunoprecipitated using an anti-cytosolic tail antibody. The radioactivity in the mature (upper) band (inset) was quantitated and plotted. □, control (1% ethanol); ●, MG132. B. Cells were biotinylated and incubated in the presence of GH with MG132 or with vehicle only at 30° C. for the time periods indicated. After streptavidin-bead purification aliquots of the cell lysates were analyzed by SDS-PAGF; western blots were incubated with a monoclonal antibody specific for the extracellular GHR domain and detected with enhanced chemifluorescence. The sharp band below the mature GHR (130 kDa) originated from a slight background staining of precursor GHR (110 kDa), due to incomplete removal of biotinylation reagent at cell lysis.
If proteasome inhibitors affect GHR-uptake, it is expected that the inhibitors prolong the lifetime of GHRs at the cell surface. To address this, we measured the effect of MG132 in a pulse-chase experiment. […] To assess the effect of MG132 more directly, we measured degradation of cell-surface biotinylated GHR after incubation in the presence of ligand (FIG. 3B). […] However, clearance from the cell surface was reduced >50% in the presence of MG132. […] The lifetime of this species was extended in the presence of MG132. Attempts to accumulate this species or other degradation products failed until now.
Cell surface biotinylation. CHO-ts20 cells, grown in 35 mm dishes, were incubated for 60 minutes at 30° C. in aMEN/HEPES, biotinylated on ice for 30 minutes using sulfo-NHS-SS-biotin (Pierce, Rockford, Ill.), and washed free of biotinylating reagents. For GH binding, the cells were incubated for 1 hour on ice in the presence of 16 nM GH with either 20 mM MG132 or 1% ethanol. The incubation was continued at 30° C. for various time periods in the presence of GH with MG132 or ethanol only. […]

Test [4] deals with CHO-ts20 cells expressing GHR. The experiment in a line: 125I-GH uptake (internalization) kinetic experiment. The following applies: inhibitor 20 mM added 3 hours before; 125I-GH 8 nM bound on ice, incubated at 30° C. Here is the method:
FIG. 2. […] CHO-ts20 cells were incubated with or without inhibitors for 3 hours at 30° C., and put on ice for 60 minutes with ^125I-GH. The cells were then incubated at 30° C. as indicated. Background label was determined in untransfected cells and subtracted. Plotted are the amounts of ^125I-GH internalized as a percentage of the cell-associated radioactivity at the start of incubation. □, control (1% ethanol); ●, MG132; ◯, lactocystin; X, lactacystin β-lactone.
To confirm and quantify the effect of the proteasome inhibitors, we measured the uptake of ^125I-GH in a kinetic experiment. Cells were pretreated with the inhibitors, ^125I-GH was bound on ice, and cells were incubated for various periods of time (FIG. 2). At the end of the incubation period, uptake was determined by washing the cells at low pH to remove the label from the cell surface. Again, GH uptake was inhibited by the proteasome inhibitors: MG132 and lactacystin b-lactone reduced the uptake to approximately 25% of the control level. […] TCA-soluble radioactivity in the culture medium, derived from lysosomal degradation of ^125I-GH, increased after 15 minutes if no inhibitor was added; virtually no TCA-soluble radioactivity appeared if the inhibitors were present (not shown).
GH binding and internalization. ^125I-hGH was prepared using chloramine T (28). For internalization studies, cells were grown in 35 mm dishes, washed with aMEM, supplemented with 20 mM HEPES, incubated for 1 hour at 30° C. in aMEM/HEPES, ^125I-GH (8 nM) was bound on ice for 60 minutes in the absence or presence of excess unlabeled GH, and the cells were washed free of unbound GH and incubated for 0 to 60 minutes. If indicated, lactacystin or its b-lactone (20 mM), MG132 (20 mM), and ZL3vinylsulfone (20 mM), dissolved in either ethanol or dimethylsulfoxide, or only vehicle, were added 3 hours before the start of the experiment. Membrane-associated GH was removed by acid wash (0.15 M NaCl, 0.05 M glycine, pH 2.5) (29) and internalized GH was determined by measuring the radioactivity after solubilization of the acid-treated cells by 1 M NaOH.

The test system of a further test is GHR in CHO-E36 cells. The experiment in a line: GH-induced GHR degradation, quantitative western blot, CHO-E36. The following applies: CHO-E36, both at 30 and 40° C. Here is the method: (§1) FIG. 4. GH-induced receptor degradation depends on an intact ubiquitin conjugation system. CHO-ts20 and CHO-E36 cells were incubated at the permissive or non-permissive temperature for 3 hours in the presence or absence of GH. Cells were lysed and aliquots were analyzed by western blotting and enhanced chemifluorescence. M, mature GHR, P, precursor GHR.
(§2) To investigate whether the ubiquitin system selects the GHR for truncation by the proteasome, we expressed the receptor in CHO-ts20 cells harboring a temperature-sensitive ubiquitin-activating enzyme, E1. The cells were incubated for 60 minutes at 42° C. (sufficient to stop generation of newly ubiquitinated proteins), followed by 3 hours at 40° C. in the presence or absence of GH, and the amounts of GHR were determined by quantitative western blot analysis (FIG. 4). At the permissive temperature, incubation in the presence of GH decreased the steady-state amounts of GHR. If the cells were kept at 40° C. in the presence of GH, the amount of GHR increased to 170%. To ascertain that this increase is solely due to a defective ubiquitin conjugation system, we used the CHO-E36 cells with an intact ubiquitin conjugation system at 40° C. As expected, in these cells the steady state of mature GHR decreased to approximately 50% of that without GH, both at 30 and 40° C. […]
In general terms: In western blotting, separated proteins are transferred to a membrane and probed.

Test [5] deals with GHR in CHO-ts20 cells (temperature-sensitive E1). The experiment in a line: GH-induced GHR degradation, quantitative western blot, CHO-ts20. The following applies: 3 hours. Here is the method:
as §1, §2

For `CC(C)C[C@@H](C=O)NC(=O)[C@H](CC(C)C)NC(=O)[C@H](CC(C)C)NC(=O)OCc1ccccc1` [MG132] (Cbz-Leu-Leu-Leu-aldehyde), the “Cy3-GH uptake (intracellular fluorescent label)” value in test [1] is reported as “hardly any label was present intracellularly”. Besides, in test [2], the “degradation rate of mature GHR” value was “affects the degradation rate of mature GHR” and the “membrane transport from ER to the Golgi complex (maturation kinetics 110 kDa to 130 kDa)” value is “does not affect membrane transport from ER to the Golgi complex”. In addition, the “lifetime of biotinylated 85-kDa intermediate degradation product” value in test [3] (in the presence of GH) is on record as “extended”. Further, the “reduction of GHR clearance from the cell surface” value in test [3] (in the presence of GH (16 nM), 20 mM MG132, 30° C.) was greater than 50%. Moreover, the “125I-GH uptake relative to control” value in test [4] is recorded as “approximately 25 % of the control level”.
`CC(C)[C@H](O)[C@@]12NC(=O)[C@H](C)[C@@H]1OC2=O` [lactacystin b-lactone]: in test [4], the “125I-GH uptake relative to control” value is listed as “approximately 25 % of the control level”.
Regarding `CC(=O)N[C@@H](CSC(=O)[C@]1([C@@H](O)C(C)C)NC(=O)[C@H](C)[C@@H]1O)C(=O)O` [lactacystin], the “Cy3-GH uptake (intracellular fluorescent label)” value in test [1] was “hardly any label was present intracellularly”. Moreover, the “125I-GH uptake relative to control” value in test [4] was “somewhat less effective”.
On to “GH: growth hormone, ligand of the growth hormone receptor”, for which, in the test with GHR in CHO-E36 cells, the “steady state of mature GHR relative to that without GH” value is “approximately 50%”. The “disappearance of cell-surface biotinylated GHR” value in test [3] (incubation in the presence of ligand, 30° C.) is “induced a rapid disappearance of the GHR”. Moreover, in test [5] (CHO-ts20, 40° C. (non-permissive)), the “amount of GHR in the presence of GH (percentage of mature GHR present without GH)” value came to 170%. In addition, the “steady-state amount of GHR in the presence of GH” value in test [5] (CHO-ts20, permissive temperature) is given as “decreased”.
